# Source: US5763596A, “C-4' modified adenosine kinase inhibitors” (Metabasis Therapeutics, Inc., priority 1996, dated 1998)
# Key:
# [1] = test system: male SA rats; test: rat skin lesion model, inhibition of neutrophil accumulation induced by carrageenan; assay type: in vivo
# Procedure: The dorsal skin of male SA rats was shaved and carrageenan (Type λ) or phosphate-buffered saline was injected intradermally. Three hours later, the injection sites were biopsied and weighed. Neutrophil content of the skin biopsies was measured as the quantity of myeloperoxidase (MPO) present in a tissue homogenate. The excised, weighed skin pieces were placed in 4 ml 0.5% mixed alkyl trimethylammonium bromide and homogenized at the highest speed for 15 seconds in a Polytron homogenizer (Brinkmann Instruments, Westbury, N.Y.). Lipids were extracted by adding 1 ml of dichloromethane to the homogenate, vortexing vigorously, and centrifuging at 1000 g, 5° C. for 15 min. Fifty μl of each supernatant was added in duplicate to a 96 well assay plate, along with dilutions of human myeloperoxidase standard. Potassium phosphate buffer (pH 6.1) containing 0.36 mg/ml of o-dianisidine dihydrochloride and 0.001% hydrogen peroxide was added (200 μl/well), and the absorbance at 450 nm was read after 5 min incubation at room temperature. The myeloperoxidase content of each skin piece was calculated from a standard curve constructed using least-square regression, and expressed as units of MPO/g of tissue.
# AK inhibitors were administered orally using polyethylene glycol-400 as vehicle or intraperitoneally using dimethylsulfoxide as vehicle, at indicated time before skin lesion injection. For each experiment, the average of all values from saline-induced lesions was calculated. This baseline value was then subtracted from values obtained from carrageenan-induced lesions. Percent inhibition for AK inhibitors were calculated from these baseline-corrected values.
# [2] = target: adenosine kinase; test: adenosine kinase (AK) inhibition; assay type: biochemical, pig heart or recombinant human; details: 0.5 μM [U-14C] adenosine, pH 7.0, 20 minutes
# Procedure: Adenosine kinase activity was measured essentially as described by Yamada et al. (Yamada, Y., Goto, H., Ogasawara, N. (1988) Biochim. Biophys. Acta 660, 36-43.) with a few minor modifications. […] Natl. Acad. Sci. […] The reactions were incubated for 20 minutes at […] The assay was quenched upon spotting 30 μL aliquots onto 2 cm^2 pieces of Whatman DE81 anion exchange paper. The papersquares were washed for 3 minutes in 6 L distilled/deionized water to remove the unreacted adenosine. The washed squares were rinsed in 95% ethanol and dried in an oven at 100° C. for 10 minutes. The amount of ^14 C-AMP was quantified by scintillation counting.
# [3] = test system: Rats (male, Simonsen); test: formalin paw model; assay type: in vivo, rat; parameters: concentration or dose not given beside the values; details: oral, 90 min before formalin
# Procedure: In this assay, injection of formalin, an irritant, into the hindpaw of rats typically evokes a biphasic response of pain-related behaviors. Phase 1 of the response which is brief, lasting approximately 0-5 min post-injection,is followed by a more prolonged phase 2, lasting approximately 10-80 min post-injection. Phase 1 behavior is thought to be a direct effect of the irritant on nociceptors at the injection site while phase 2 behavior is thought to include a hyperalgesic component mediated by sensitization of neuronal elements within the spinal cord. Studies from other laboratories have found the first portion of Phase 2 (sometimes referred to as Phase 2a) to be most responsive to pharmacological manipulation.
# Rats (male, Simonsen) weighing between 100-200 g, are used in the present experiments. For screening purposes drugs are administered orally 90 min prior to initiation of formalin test. At designated intervals the animals in groups of 4 are placed individually in a small animal restrainer with the right hindpaw accessible through a hole in the bottom of the restrainer. The formalin paw assay is initiated by the injection using a 30G needle of 50 μl of a 5% formalin solution in saline into the right plantar surface of each hindpaw. The rat is then immediately placed in a separate plexiglass box and scoring (described below) of the animal's behavior is begun at 1.7 min after formalin injection. The instantaneous behavior of each animal in a group of 4 was observed and assigned a score once in each 20 second interval. This sequence is repeated over a 30 min period. The scoring protocol is an adaptation of the method published by Dubuisson and Dennis (Pain 4:161-174, 1977) which assigns a score from 0-3 as follows:
# 0--no discernible favoring of injected paw, weight evenly distributed
# 1--injected paw is favored, rests lightly on floor
# 2--injected paw is elevated
# 3--injected paw is vigorously licked, bitten or shake
# Scores are continuously recorded directly onto an Excel spreadsheet. […] 2) the total number of incidences specifically of licking/biting behavior is summed over Phase 2 and mean values determined from 6 different animals with results expressed as % inhibition compared to vehicle control.
# [4] = test system: male SA rats; test: anticonvulsant activity, maximal electroshock (MES) model; assay type: in vivo; details: Rattus norvegicus, ip, 1 h before MES; >5 / <5: fewer / more than 50% of animals inhibited at 5 mg/kg in initial screen
# Procedure: The anticonvulsant activity of the tested compounds was evaluated in male SA rats (100-150 g, Simonsen) using the maximal electroshock (MES) model described in Swinyard et al., Antiepileptic Drugs, 3d Ed. at 85-102 (Levy, et al., eds.), NY: Raven Press (1989). The rats were maintained on a 12/12 light/dark cycle in temperature controlled facilities with free access to food and water. For p.o. administration, the animals are fasted overnight, prior to the experiment. One hour prior to seizure testing, the animals were injected interperitoneally (ip) or orally (per os, po) with one of various doses of test compound dissolved in DMSO or PEG 400.
# Maximal electroshock seizures (MES) were induced by administering a 150 mA, 60 Hz current for 0.2 seconds via corneal electrodes using a Wahlquist Model H stimulator. […] This endpoint was expressed as the percentage of animals in which the response was inhibited. Typically, compounds were screened initially at one hour following a dose of 5 mg/kg ip. […] The results for exemplary compounds of the invention are set forth in Table 8, expressed as ED50 values.
# [5] = test system: male Lewis rats; test: adjuvant arthritis; assay type: in vivo, rat
# Procedure: Heat-killed Mycobacterium butyricum was ground to a find powder and suspended in heavy mineral oil at 10 mg/ml. The suspension was injected subcutaneously into the base of the tail of male Lewis rats at 0.1 ml per rat. This immunization procedure induces an agressive arthritis that is apparent at day 10-12 and rapidly worsens. The volumes of the hind paws were measured before immunization and on days 12, 15 and 20 after immunization. The baseline paw volume was subtracted from the arthritic volumes to yield paw swelling. AK inhibitors were given by daily oral gavage beginning on day 4 after immunization, using polyethylene glycol-400 as the vehicle. Control rats received vehicle only. Percent inhibition was calculated based on paw swelling in AK inhibitor treated group compared to vehicle treated group, and is reported in Table 11.
# [6] = 10 mg/kg daily oral gavage from day 4
# [7] = 20 mg/kg daily oral gavage from day 4
structure (smiles),measurement,setting,value
O[C@@H]1[C@H](O)CO[C@H]1n1cc(-c2ccccc2)c2c(Nc3ccc(F)cc3)ncnc21 [compound 28],% inhibition of neutrophil accumulation,"[1]; i.p., pretreatment 30 min, 3 mg/kg",18%
same,% inhibition of neutrophil accumulation,"[1]; i.p., pretreatment 30 min, 10 mg/kg",62%
same,% inhibition of neutrophil accumulation,"[1]; i.p., pretreatment 30 min, 30 mg/kg",79%
same,% inhibition of neutrophil accumulation,"[1]; i.p., pretreatment 60 min, 10 mg/kg",49%
same,% inhibition of neutrophil accumulation,"[1]; i.p., pretreatment 120 min, 10 mg/kg",60%
same,% inhibition of neutrophil accumulation,"[1]; i.p., pretreatment 240 min, 10 mg/kg",28%
same,% inhibition of neutrophil accumulation,"[1]; p.o., pretreatment 60 min, 10 mg/kg",28%
same,% inhibition of neutrophil accumulation,"[1]; p.o., pretreatment 60 min, 20 mg/kg",40%
same,% inhibition of neutrophil accumulation,"[1]; p.o., pretreatment 120 min, 20 mg/kg",84%
same,% inhibition of neutrophil accumulation,"[1]; p.o., pretreatment 240 min, 20 mg/kg",77%
same,% inhibition of neutrophil accumulation,"[1]; p.o., pretreatment 420 min, 20 mg/kg",20%
same,IC50,[2],28 nM
same,% Inhibition Phase 1 Composite score,[3]; 1.7-5 min post-formalin,9.2%
same,% Inhibition Phase 2 Composite score,[3]; 10.3-30 min post-formalin,37.4%
same,% Inhibition Phase 2. Licking/biting,[3]; Phase 2,76.1%
same,ED50 at 5 mg/kg,[4],< 5 mg/kg
same,% inh at day 12 (paw swelling),[5]; [6],29 ± 7%
same,% inh at day 15 (paw swelling),[5]; [6],22 ± 4%
same,% inh at day 12 (paw swelling),[5]; [7],52 ± 23%
same,% inh at day 15 (paw swelling),[5]; [7],52 ± 22%
same,% inh at day 20 (paw swelling),[5]; [7],40 ± 8%
